Experimental data reported in US8084479B2, “Thiazole compounds and methods of use” (Amgen Inc., priority 2006, dated 2011).
Structures can show the parent of a compound that is named as a salt.

biological target: PKBα (Homo sapiens, UniProt P31749); test: PKB kinase assay (P33-labeled ATP, peptide substrate, filter plate); format: biochemical; details: PKBα enzyme (full length or kinase domain with pleckstrin domain deleted)
Source text: The kinase assay for evaluating PKB activity comprises active PKB enzymes, a PKB specific substrate, and P^33-labeled ATP. […] The phosphorylated substrate was captured by a phosphocellulose membrane filter plate (MLLIPORE) and measured by a Wallac Microbeta liquid scintillation counter (Perkin Elmer).

Chain of PKBα (P31749 118-480 limits assumed): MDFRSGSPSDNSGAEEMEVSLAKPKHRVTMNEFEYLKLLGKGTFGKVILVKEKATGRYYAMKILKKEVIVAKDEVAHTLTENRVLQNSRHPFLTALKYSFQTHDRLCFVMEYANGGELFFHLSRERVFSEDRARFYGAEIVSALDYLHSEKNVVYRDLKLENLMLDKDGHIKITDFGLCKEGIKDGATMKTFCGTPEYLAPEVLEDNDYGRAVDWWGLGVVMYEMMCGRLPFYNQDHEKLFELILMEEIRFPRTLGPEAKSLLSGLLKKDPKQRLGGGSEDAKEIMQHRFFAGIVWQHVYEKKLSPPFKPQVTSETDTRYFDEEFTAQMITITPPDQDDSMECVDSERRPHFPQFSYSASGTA

| IC50 [nM] | SMILES |
| --- | --- |
| 50 to 1000 | N[C@H](CNc1nc(C#CC2(O)CCC2)c(-c2ccc3cnccc3c2)s1)Cc1ccc(C(F)(F)F)cc1 [Example 142, 1-(2-(2-((S)-2-amino-3-(4-(trifluoromethyl)phenyl)propylamino)-5-(isoquinolin-6-yl)thiazol-4-yl)ethynyl)cyclobutanol] |
| 50 to 1000 | Cc1n[nH]c2ccc(-c3cnc(NC[C@@H](N)Cc4ccc(Cl)cc4)s3)cc12 [Example 3, N—((S)-2-amino-3-(4-chlorophenyl)propyl)-5-(3-methyl-1H-indazol-5-yl)thiazol-2-amine] |
| 50 to 1000 | C[C@@H](c1ccc(C(F)(F)F)cc1)[C@H](N)CNc1ncc(-c2cc(F)c3c(c2)CC(=O)N3)s1 [Example 222, 5-(2-((2S,3S)-2-amino-3-(4-(trifluoromethyl)phenyl)butylamino)thiazol-5-yl)-7-fluoroindolin-2-one] |
| < 50 | N[C@H](CNc1ncc(-c2nc3ccncc3s2)s1)Cc1ccc(Cl)cc1 [Example 99, N—((S)-2-Amino-3-(4-chlorophenyl)propyl)-5-(thiazolo[5,4-c]pyridin-2-yl)thiazol-2-amine] |
| 50 to 1000 | NC(CNc1nc(Cl)c(-c2ccc3cnccc3c2)s1)Cc1ccc(C(F)(F)F)cc1 (stereo not shown) [Example 165] |
| 50 to 1000 | N[C@H](CNc1ncc(-c2ccc3c(c2)CC(=O)N3)s1)Cc1ccc(Cl)cc1Cl [Example 113, 5-(2-((S)-2-Amino-3-(2,4-dichlorophenyl)propylamino)thiazol-5-yl)indolin-2-one] |
| < 50 | Nc1cc2cc(-c3cnc(NC[C@@H](N)Cc4ccc(C(F)(F)F)cc4)s3)ccc2cn1 [Example 75, 6-(2-((S)-2-Amino-3-(4-(trifluoromethyl)phenyl)propylamino)thiazol-5-yl)isoquinolin-3-amine] |
| < 50 | CNc1cc2cc(-c3cnc(NC[C@@H](N)Cc4ccc(Cl)cc4)s3)ccc2cn1 [Example 139, 6-(2-((S)-2-amino-3-(4-chlorophenyl)propylamino)thiazol-5-yl)-N-methylisoquinolin-3-amine] |
| < 50 | Nc1cc2cc(-c3cnc(NC[C@@H](N)Cc4ccc(Cl)cc4)s3)ccc2cn1 [Example 76, 6-(2-((S)-2-Amino-3-(4-chlorophenyl)propylamino)thiazol-5-yl)isoquinolin-3-amine] |
| < 50 | N[C@H](CNc1ncc(-c2ccc3cnccc3c2)s1)Cc1ccc(C(F)(F)F)nc1 [Example 170] |
| 50 to 1000 | N[C@H](CNc1nc(O)c(-c2ccc(F)c(F)c2)s1)Cc1ccc(Cl)cc1 [Example 80, 2-((S)-2-Amino-3-(4-chlorophenyl)propylamino)-5-(3,4-difluorophenyl)thiazol-4-ol dihydrochloride] |
| 1000 to 10000 | Nc1n[nH]c2ccc(-c3cnc(NC[C@@H](N)Cc4c[nH]c5ccccc45)s3)cc12 [Example 37, 5-(2-((S)-2-amino-3-(1H-indol-3-yl)propylamino)thiazol-5-yl)-1H-indazol-3-amine] |
| < 50 | COCc1nc(NC[C@@H](N)Cc2ccc(C(F)(F)F)cc2)sc1-c1ccc2[nH]c(=O)oc2c1 [Example 59, 6-(2-((S)-2-amino-3-(4-(trifluoromethyl)phenyl)propylamino)-4-(methoxymethyl)thiazol-5-yl)benzo[d]oxazol-2(3H)-one] |
| < 50 | NC(CNc1ncc(-c2ccc3[nH]ncc3c2)s1)Cc1ccc(C(F)(F)F)c(F)c1F (stereo not shown) [Example 190, N-(2-amino-3-(2,3-difluoro-4-(trifluoromethyl)phenyl)propyl)-5-(1H-indazol-5-yl)thiazol-2-amine] |
| 1000 to 10000 | N[C@H](CNc1nc(C#CC2=CCCC2)c(-c2ccc3cnccc3c2)s1)Cc1ccc(C(F)(F)F)cc1 [Example 147, N—((S)-2-amino-3-(4-(trifluoromethyl)phenyl)propyl)-4-(2-cyclopentenylethynyl)-5-(isoquinolin-6-yl)thiazol-2-amine] |
| < 50 | COc1cc(C[C@H](N)CNc2ncc(-c3ccc4c(c3)CC(=O)N4)s2)ccc1C(F)(F)F [Example 206, 5-(2-((S)-2-amino-3-(3-methoxy-4-(trifluoromethyl)phenyl)propylamino)thiazol-5-yl)indolin-2-one] |
| 1000 to 10000 | c1ccc(CNc2ncc(-c3nc4ccncc4s3)s2)cc1 [Example 28, N-benzyl-5-(thiazolo[5,4-c]pyridin-2-yl)thiazol-2-amine] |
| 50 to 1000 | N[C@H](CNc1nc(C(F)(F)F)c(-c2ccc3cnccc3c2)s1)Cc1ccc(Cl)cc1 [Example 168] |
| 50 to 1000 | COCc1nc(N(C[C@@H](N)Cc2ccc(Cl)cc2)C(C)=O)sc1-c1nc2ccncc2s1 [Example 25, N—((S)-2-amino-3-(4-chlorophenyl)propyl)-N-(4-(methoxymethyl)-5-(thiazolo[5,4-c]pyridin-2-yl)thiazol-2-yl)acetamide] |
| < 50 | N[C@H](CNc1ncc(-c2ccc3cnccc3c2)s1)Cc1ccc(Cl)c(Cl)c1 [Example 132, N—((S)-2-Amino-3-(3,4-dichlorophenyl)propyl)-5-(isoquinolin-6-yl)thiazol-2-amine] |
| 1000 to 10000 | N[C@H](CNc1nc(C(=O)N2CCCC2)c(-c2ccc3cnccc3c2)s1)Cc1ccc(C(F)(F)F)cc1 [Example 195, (2-((S)-2-amino-3-(4-(trifluoromethyl)phenyl)propylamino)-5-(isoquinolin-6-yl)thiazol-4-yl)(pyrrolidin-1-yl)methanone] |
| 50 to 1000 | N[C@H](CNc1ncc(-c2ccc3[nH]c(=O)oc3c2)s1)Cc1ccc(F)c(F)c1 [Example 127, 6-(2-((S)-2-Amino-3-(3,4-difluorophenyl)propylamino)thiazol-5-yl)benzo[d]oxazol-2(3H)-one] |
| 50 to 1000 | COc1ccc(C[C@H](N)CNc2ncc(-c3nc4ccncc4s3)s2)cc1 [Example 98, N—((S)-2-Amino-3-(4-methoxyphenyl)propyl)-5-(thiazolo[5,4-c]pyridin-2-yl)thiazol-2-amine] |
| < 50 | COCc1nc(NC[C@@H](N)Cc2ccc(C(F)(F)F)cc2)sc1-c1ccc2cnccc2n1 [Example 71, N—((S)-2-amino-3-(4-(trifluoromethyl)phenyl)propyl)-4-(methoxymethyl)-5-(1,6-naphthyridin-2-yl)thiazol-2-amine] |
| < 50 | COc1cc(C[C@H](N)CNc2ncc(-c3ccc4cnccc4c3)s2)ccc1C(F)(F)F [Example 205, N—((S)-2-amino-3-(3-methoxy-4-(trifluoromethyl)phenyl)propyl)-5-(isoquinolin-6-yl)thiazol-2-amine] |
| 1000 to 10000 | N[C@@H](Cc1cccc(C(F)(F)F)c1)CN(Cc1ccccc1)c1ncc(-c2nc3ccncc3s2)s1 [Example 29, N—((S)-2-amino-3-(3-(trifluoromethyl)phenyl)propyl)-N-benzyl-5-(thiazolo[5,4-c]pyridin-2-yl)thiazol-2-amine] |
| 50 to 1000 | CN(C)C(=O)c1nc(NC[C@@H](N)Cc2ccc(C(F)(F)F)cc2)sc1-c1ccc2cnccc2c1 [Example 194, 2-((S)-2-amino-3-(4-(trifluoromethyl)phenyl)propylamino)-5-(isoquinolin-6-yl)-N,N-dimethylthiazole-4-carboxamide] |
| 50 to 1000 | N[C@H](CNc1ncc(-c2ccc3nnccc3c2)s1)Cc1ccc(C(F)(F)F)cc1 [Example 254, N—((S)-2-amino-3-(4-(trifluoromethyl)phenyl)propyl)-5-(cinnolin-6-yl)thiazol-2-amine] |
